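Growth conditions: 96-well plates. Treatment: test compound, 48 hours, 5 concentrations. Analysis: linear interpolation between bracketing concentrations; unreached endpoints set to highest concentration. GI50: concentration for 50% inhibition of growth.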 Activity calls are given as the source filed them. No stated cut-off is given here; in the data, active = GI50 up to about 1.1 µM and inactive = higher.
How the values were obtained:
Test in all cases: DTP human tumour cell line panel, 48 h
[1] = test system: CCRF-CEM
[2] = test system: DU-145
[3] = test system: HCC 2998
[4] = test system: HCT-15
[5] = test system: HL-60
[6] = test system: KM12
[7] = test system: MCF7
[8] = test system: MDA-MB-435
[9] = test system: Malme-3M
[10] = test system: NCI-H226
[11] = test system: NCI-H460
[12] = test system: NCI-H522
[13] = test system: NCI/ADR-RES
[14] = test system: PC-3
[15] = test system: RXF 393
[16] = test system: SK-MEL-2
[17] = test system: SK-OV-3
[18] = test system: SN12C
[19] = test system: SNB-75
[20] = test system: SW-620

Measured: GI50

COc1cc(-c2cc(-c3ccccc3)nc(-c3c(OC)ccc4c(C)cc(=O)oc34)c2)cc(OC)c1OC
> 100 µM: [4]
inactive: [1] > 100 µM | [2] > 100 µM | [3] > 100 µM | [5] 13.6 µM | [6] > 100 µM | [7] 74.1 µM | [8] > 100 µM | [9] > 100 µM | [10] > 100 µM | [11] > 100 µM | [12] > 100 µM | [13] > 100 µM | [14] > 100 µM | [15] > 100 µM | [16] > 100 µM | [17] > 100 µM | [18] > 100 µM | [19] > 100 µM | [20] > 100 µM

Cc1nn(C(=O)c2ccccc2O)c2c1C(c1ccccc1O)SC(=N)N2 (stereo not given)
inactive: [1] 3.1 µM | [2] 8.85 µM | [3] > 10 µM | [5] 2.22 µM | [6] 4.65 µM | [7] 2.75 µM | [8] 3.08 µM | [9] > 10 µM | [10] 1.49 µM | [11] 4.36 µM | [12] 3.47 µM | [13] 4.09 µM | [14] 7.71 µM | [15] > 10 µM | [16] 4.65 µM | [17] 5.02 µM | [18] 4.82 µM | [19] 4.06 µM | [20] 6.11 µM
4.42 µM: [4]

COc1ccc(-c2c(-c3ccccc3)c(C)nc3[nH]c(=S)[nH]c(=S)c23)cc1OC
30.9 µM: [4]
inactive: [1] 24.7 µM | [2] 44.4 µM | [3] 37.6 µM | [5] 31.8 µM | [6] 18.5 µM | [7] 33.8 µM | [8] 26.9 µM | [9] 30.8 µM | [10] 38 µM | [11] 24.3 µM | [12] 27.1 µM | [13] 40.4 µM | [14] 25.1 µM | [15] 35.8 µM | [16] 20.4 µM | [17] 37 µM | [18] 21.6 µM | [19] 42 µM | [20] 61.7 µM

COc1cc(C=O)cc(/C=N/c2ccc(Br)cc2)c1O
2.15 µM: [4]
inactive: [1] 7.59 µM | [2] 11.3 µM | [3] 14.1 µM | [5] 2.11 µM | [6] 10.2 µM | [7] 4.47 µM | [9] 4.04 µM | [10] 2.59 µM | [11] 2.71 µM | [13] 2.49 µM | [14] 2.81 µM | [15] 4.43 µM | [16] 2.78 µM | [17] 2.17 µM | [18] 4.13 µM | [19] 23.8 µM | [20] 1.25 µM
active: [8] 1.05 µM | [12] 0.995 µM

N=C1/C(=C/c2ccc(F)cc2)C(=O)N=C2SC=NN12
inactive: [1] > 100 µM | [2] > 100 µM | [3] > 100 µM | [5] 80.5 µM | [6] > 100 µM | [7] > 100 µM | [8] 83.4 µM | [9] > 100 µM | [10] > 100 µM | [11] > 100 µM | [12] > 100 µM | [13] > 100 µM | [14] > 100 µM | [15] 31.5 µM | [16] > 100 µM | [17] > 100 µM | [18] > 100 µM | [19] 92.3 µM | [20] > 100 µM
> 100 µM: [4]

O=S(=O)(Nc1ccccc1)c1ccc(-c2c3nc(c(-c4ccc(S(=O)(=O)Nc5ccccc5)cc4)c4ccc([nH]4)c(-c4ccc(S(=O)(=O)Nc5ccccc5)cc4)c4nc(c(-c5ccc(S(=O)(=O)Nc6ccccc6)cc5)c5ccc2[nH]5)C=C4)C=C3)cc1
> 31.6 µM: [4]
inactive: [1] > 31.6 µM | [2] > 31.6 µM | [3] 17.7 µM | [5] > 31.6 µM | [6] > 31.6 µM | [7] > 31.6 µM | [8] > 31.6 µM | [9] > 31.6 µM | [10] > 100 µM | [11] 11.6 µM | [12] > 31.6 µM | [13] > 31.6 µM | [14] > 31.6 µM | [15] > 31.6 µM | [16] > 31.6 µM | [17] > 31.6 µM | [18] > 31.6 µM | [19] 11.5 µM | [20] > 31.6 µM

C/C(=N\NC(=O)c1ccncc1)c1ccc2ccccc2c1O
inactive: [2] 2.25 µM | [3] 2.9 µM | [6] 2.31 µM | [7] 1.35 µM | [8] 8.99 µM | [9] 1.19 µM | [10] 1.77 µM | [13] 1.87 µM | [14] 5.6 µM | [15] 3.08 µM | [16] 7.69 µM | [17] 4.47 µM | [18] 1.62 µM | [19] 3.66 µM | [20] 3.12 µM
active: [1] 0.232 µM | [5] 0.638 µM | [11] 0.356 µM | [12] 0.869 µM
0.419 µM: [4]

O=C1CCCSC(=O)N1Cc1ccccc1
inactive: [1] > 100 µM | [2] > 100 µM | [3] > 100 µM | [5] > 100 µM | [6] > 100 µM | [7] > 100 µM | [8] > 100 µM | [9] > 100 µM | [10] > 100 µM | [11] > 100 µM | [12] > 100 µM | [13] > 100 µM | [14] > 100 µM | [15] > 100 µM | [16] > 100 µM | [17] > 100 µM | [18] > 100 µM | [20] > 100 µM
> 100 µM: [4]
active: [19] 0.0515 µM

Cc1cc2c(cc1C(=O)CCC(=O)O)CC1(C2)Cc2cc(C)c(C(=O)CCC(=O)O)cc2C1
> 100 µM: [4]
inactive: [1] > 100 µM | [2] > 100 µM | [3] > 100 µM | [5] > 100 µM | [6] > 100 µM | [7] > 100 µM | [8] > 100 µM | [9] > 100 µM | [10] > 100 µM | [11] > 100 µM | [12] > 100 µM | [13] > 100 µM | [14] > 100 µM | [15] > 100 µM | [16] > 100 µM | [17] > 100 µM | [18] > 100 µM | [19] 90.6 µM | [20] > 100 µM

COc1ccc2c(c1)C(=O)CC(C(N)=O)C2 (stereo not given)
> 100 µM: [4]
inactive: [1] > 100 µM | [2] > 100 µM | [3] > 100 µM | [5] > 100 µM | [6] > 100 µM | [7] > 100 µM | [8] > 100 µM | [9] > 100 µM | [10] > 100 µM | [11] > 100 µM | [12] > 100 µM | [13] > 100 µM | [14] > 100 µM | [15] > 100 µM | [16] > 100 µM | [17] > 100 µM | [18] > 100 µM | [19] 53.1 µM | [20] > 100 µM

Source: ChEMBL document CHEMBL1201862, “PubChem BioAssay data set” (2004)
